Measured values reported in ChEMBL document CHEMBL1201862, “PubChem BioAssay data set” (2004).
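Assay format: 96-well plates, 48-hour exposure. GI50 marks 50% less growth.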 The source made the active and inactive calls. No stated cut-off is given here; in the data, active = GI50 up to about 1.1 µM and inactive = higher.

How the values were obtained:
Assay in all cases: NCI-60 cell line screen, 48 h
[1] = system: M19-MEL
[2] = system: LXFL 529
[3] = system: XF498
[4] = system: SNB-78
[5] = system: RXF 631
[6] = system: DMS-273
[7] = system: HOP-18
[8] = system: DMS-114

Measured: GI50

O=[N+]([O-])c1ccc(-c2ccc(-c3csc(Nc4ccccn4)n3)o2)cc1
inactive: [1] 58.6 µM | [2] 25.1 µM | [3] 22.7 µM | [4] 28.2 µM | [5] 35.4 µM | [6] 35.2 µM

Cn1c(=O)c2c(nc3n2C(CCl)CO3)n(C)c1=O (stereo not given)
inactive: [7] > 100 µM | [8] > 100 µM | [1] > 100 µM | [4] > 100 µM | [5] > 100 µM | [6] > 100 µM

CC(C)(C)c1ccc(OCCOCCOc2ccc(C(C)(C)C)cc2S(N)(=O)=O)c(S(N)(=O)=O)c1
inactive: [7] > 100 µM | [8] 16.9 µM | [1] > 100 µM | [4] > 100 µM | [5] > 100 µM | [6] 72.6 µM

COC(=O)c1c(-c2ccccc2)cc2c3cc(-c4ccccc4)c(C(=O)OC)n3c3ccccc3n12
inactive: [7] > 100 µM | [8] > 100 µM | [1] > 100 µM | [2] > 100 µM | [3] > 100 µM | [4] > 100 µM | [5] > 100 µM | [6] 79.3 µM

CC(=O)NNc1nc(C)c(C(=O)/C=C/c2cccc([N+](=O)[O-])c2)s1
inactive: [7] > 100 µM | [8] > 100 µM | [1] > 100 µM | [2] > 100 µM | [4] > 100 µM | [5] > 100 µM | [6] > 100 µM

COc1ccc(S(=O)(=O)N/N=C/CN2C(=O)c3ccccc3C2=O)cc1OC
inactive: [8] > 100 µM | [1] > 100 µM | [2] > 100 µM | [3] > 100 µM | [5] > 100 µM | [6] > 100 µM

CCOC(=O)NC(=O)c1cn(CCCCCCOC(=O)NCCCCCCNC(=O)OCCCCCCn2cc(C(=O)NC(=O)OCC)c(=O)[nH]c2=O)c(=O)[nH]c1=O
inactive: [7] > 100 µM | [8] 67.9 µM | [1] > 100 µM | [2] > 100 µM | [5] > 100 µM | [6] > 100 µM
